Test results: publication PMC12123601, “Light-Induced, Lysine-Targeting Irreversible Covalent Inhibition of the Human Oxygen Sensing Hydroxylase Factor Inhibiting HIF (FIH)” (Journal of the American Chemical Society, 2025)

Columns and labels:
[1] = system: EGLN3 mRNA level in Hep3B cells; assay: qRT-PCR of FIH-dependent HIF target gene EGLN3 in Hep3B cells; type: cell-based
Method: 5 […] sustainably engages with FIH and regulates the expression of FIH-dependent HIF target gene EGLN3 in Hep3B cells. (A) The CETSA assay was carried out with Hep3B cells grown in the presence of NBA-ZG-2291 (50 μM) for 12–48 h after 30 min of light activation (365 nm, 16 W). The intensity of the bands for grayscale analysis was referenced to the starting temperature (37 °C). α-Actinin was the sample loading control. n = 2; mean ± SD. […] (E) Correlation heatmap of the NBA-ZG-2291-treated group and the siFIH group by RNA-sequencing analysis. […] The relative fold change with respect to DMSO treated sample is shown (with normalization to HPRT gene levels). Mean ± SEM; n = 3. (G) TG level of NBA-ZG-2291-treated 3T3-L1-derived adipocytes. Mean ± SEM; n = 3. (H) Representative Oil Red O-stained images of the control, ZG-2291-treated, and NBA-ZG-2291-treated 3T3-L1-derived adipocytes. Scale Bar, 30 μm. P values were analyzed by two-way ANOVA comparing with the vehicle/control group (*, P < 0.05; **, P < 0.01; ***, P < 0.001, ****, P < 0.0001). See Methods (Quantitative PCR Analysis of Gene Expression) for assay details. TEXT PRINTED IN THE PICTURE: (A) no label printed: FIH: ΔTm (°C): 8.87 (Incubation time: 12 h); FIH: ΔTm (°C): 9.28 (Incubation time: 24 h); FIH: ΔTm (°C): 8.86 (Incubation time: 48 h); α-actinin: ΔTm (°C): 0.30 (Incubation time: 12 h); α-actinin: ΔTm (°C): -0.03 (Incubation time: 24 h); α-actinin: ΔTm (°C): -0.45 (Incubation time: 48 h) DOUBTS OF THE COPYIST ABOUT THIS PICTURE: Panel A: the picture prints no substance label with the ΔTm tables, so the label is left empty
The Egl-9 family hypoxia-inducible factor 3 gene (EGLN3, PHD3) is a HIF target gene, expression of which is negatively regulated by FIH catalysis, , potentially in a context-dependent manner. We therefore investigated the effect of the light-induced covalent inhibitor NBA-ZG-2291 on EGLN3 expression levels in Hep3B cells using ZG-2291 as a positive inhibition control. […] At a concentration of 10 μM, NBA-ZG-2291 increased EGLN3 expression by ∼2.5-fold with irradiation.
We also compared the time-dependent regulation of NBA-ZG-2291 on the HIF pathway with that of ZG-2291. […] This may result from the limited action time of the reversible inhibitor, perhaps due to its metabolism. The overall results provide strong evidence that the light-induced, lysine-targeting irreversible covalent inhibitor NBA-ZG-2291 can effectively and sustainably engage FIH, leading to the upregulation of FIH-dependent HIF target gene expression.

[2] = target: FIH (Homo sapiens, UniProt Q9NWT6); assay: O-phenylenediamine (OPD) 2OG derivatization turnover assay (remaining 2OG in FIH hydroxylation system); type: biochemical; set-up: Concentration of remaining 2OG: unit: µM
Method: To explore whether the covalent inhibitor can effectively and sustainably prevent the hydroxylation process catalyzed by FIH, the inhibitory activities against FIH were evaluated using the fluorescent O-phenylenediamine (OPD) 2OG derivatization turnover assay (Figure S9).
Figure S9. Schematic of the O-phenylenediamine (OPD) fluorescent derivative assay6. The assay monitors depletion of 2OG.
(1 picture or pasted object on this page, not shown here) […]
pET28a vectors encoding for full-length FIH with an N-terminal His6 tag or for FIH (K106A) with an N-terminal His6 tag were purchased from Nanjing Zoonbio Biotechnology. Both the FIHWT and FIHK106A protein were expressed from the respective plasmid in Escherichia coli BL21 at 20 °C for 16 h. E. coli cells were lysed and the lysate were clarified by centrifugation. His6-tagged FIHWT or FIHK106A was purified on a HisTrap affinity column (GE Healthcare) by elution with an imidazole gradient. The final purified proteins were stored in PBS buffer. […]
Ki = I50 / [1 + ([L]50 + [P]0)/Kd] […]
3.2 O-Phenylenediamine (OPD) fluorescent derivative assay
Assays were carried out by mixing 1 mM DTT, 0.6 mg/mL of catalase, 200 μM 2-OG, 50 mM Hepes, 200 μM HIF-1α (788-807), and inhibitors at pH 7.0 to a final volume of 44 μL and incubated at 37 °C for 5 min. At the same time, FIH enzyme and iron (prepared as 200 mM stock in 20 mM HCl and diluted with water) were mixed at room temperature for 3 min. […] The reaction was stopped by the addition of 100 μL of 0.5 M HCl. After adding 50 μL of 10 mg/mL OPD in 0.5 M HCl and heating at 95 °C for 10 min, the derivatization was achieved. Then, 50 μL of the mixture centrifugated for 5 min was made basic by adding 30 μL of 1.25 M NaOH, and then fluorescence was detected by SPARK Multi-Mode Microplate Reader (Tecan). […]
Crystals were cryo -protected using mother liquor supplemented with 25%v/v glycerol before manual loop cryo -cooling in liquid N2.
Data for ligand -bound protein complexes were from single crystals at 100 K using Diamond Light Source (UK) beamlines. The FIH crystal structures were determined by molecular replacement (MR) using the AutoMR (PHASER) subroutine in PHENIX (version 1.18.2) based on the PDB ID: 1H2K crystal structure .

FIH, sequence (Q9NWT6 whole entry): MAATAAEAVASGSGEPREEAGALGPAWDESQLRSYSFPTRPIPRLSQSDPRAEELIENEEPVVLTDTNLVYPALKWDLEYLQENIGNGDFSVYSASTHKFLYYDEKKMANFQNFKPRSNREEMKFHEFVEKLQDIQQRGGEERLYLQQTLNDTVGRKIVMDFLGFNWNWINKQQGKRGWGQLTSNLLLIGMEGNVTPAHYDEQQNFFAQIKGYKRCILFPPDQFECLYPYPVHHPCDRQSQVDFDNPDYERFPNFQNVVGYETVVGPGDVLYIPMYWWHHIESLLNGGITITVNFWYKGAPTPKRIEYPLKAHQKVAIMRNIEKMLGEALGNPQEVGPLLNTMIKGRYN

`O=C(O)CNC(=O)c1ncc(-c2cc(-c3cccc(Cl)c3)no2)cc1O` [ZG-2291, reference compound] was tested, and the “Effect of irradiation on EGLN3 expression” value [1] was “not affected by irradiation”, the “Upregulation of EGLN3 mRNA level” value ([1]; 20 μM, absence of irradiation) was about 2.2 fold and the “EGLN3 mRNA levels versus DMSO” value ([1]; after 16 h treatment) was “no significant difference compared to the negative control”. The “Concentration of remaining 2OG” value ([2]; inhibitor 0.14 μM, incubation 0 min, 200 μM 2-OG at start) was 200.0, the “Concentration of remaining 2OG” value ([2]; inhibitor 0.14 μM, incubation 15 min) was 182.9 and the “Concentration of remaining 2OG” value ([2]; inhibitor 0.14 μM, incubation 30 min) was 173.3. For the same molecule, the “Concentration of remaining 2OG” value ([2]; inhibitor 0.14 μM, incubation 1 h) was 163.0, the “Concentration of remaining 2OG” value ([2]; inhibitor 0.14 μM, incubation 4 h) was 140.5 and the “Concentration of remaining 2OG” value ([2]; inhibitor 0.41 μM, incubation 0 min, 200 μM 2-OG at start) was 200.0. The “Concentration of remaining 2OG” value ([2]; inhibitor 0.41 μM, incubation 15 min) was 184.2, the “Concentration of remaining 2OG” value ([2]; inhibitor 0.41 μM, incubation 30 min) was 176.4 and the “Concentration of remaining 2OG” value ([2]; inhibitor 0.41 μM, incubation 1 h) was 162.3. For the same molecule, the “Concentration of remaining 2OG” value ([2]; inhibitor 0.41 μM, incubation 4 h) was 153.7, the “Concentration of remaining 2OG” value ([2]; inhibitor 1.23 μM, incubation 0 min, 200 μM 2-OG at start) was 200.0 and the “Concentration of remaining 2OG” value ([2]; inhibitor 1.23 μM, incubation 15 min) was 190.8. The “Concentration of remaining 2OG” value ([2]; inhibitor 1.23 μM, incubation 30 min) was 184.4, the “Concentration of remaining 2OG” value ([2]; inhibitor 1.23 μM, incubation 1 h) was 172.8 and the “Concentration of remaining 2OG” value ([2]; inhibitor 1.23 μM, incubation 4 h) was 159.4. The “Concentration of remaining 2OG” value ([2]; inhibitor 3.70 μM, incubation 0 min, 200 μM 2-OG at start) was 200.0, the “Concentration of remaining 2OG” value ([2]; inhibitor 3.70 μM, incubation 15 min) was 192.8 and the “Concentration of remaining 2OG” value ([2]; inhibitor 3.70 μM, incubation 30 min) was 190.8. For the same molecule, the “Concentration of remaining 2OG” value ([2]; inhibitor 3.70 μM, incubation 1 h) was 181.0, the “Concentration of remaining 2OG” value ([2]; inhibitor 3.70 μM, incubation 4 h) was 167.9 and the “Concentration of remaining 2OG” value ([2]; inhibitor 11.1 μM, incubation 0 min, 200 μM 2-OG at start) was 200.0. The “Concentration of remaining 2OG” value ([2]; inhibitor 11.1 μM, incubation 15 min) was 195.1, the “Concentration of remaining 2OG” value ([2]; inhibitor 11.1 μM, incubation 30 min) was 194.6 and the “Concentration of remaining 2OG” value ([2]; inhibitor 11.1 μM, incubation 1 h) was 184.1. The “Concentration of remaining 2OG” value ([2]; inhibitor 11.1 μM, incubation 4 h) was 175.9, the “Concentration of remaining 2OG” value ([2]; inhibitor 33.3 μM, incubation 0 min, 200 μM 2-OG at start) was 200.0 and the “Concentration of remaining 2OG” value ([2]; inhibitor 33.3 μM, incubation 15 min) was 195.6. The “Concentration of remaining 2OG” value ([2]; inhibitor 33.3 μM, incubation 30 min) was 195.3, the “Concentration of remaining 2OG” value ([2]; inhibitor 33.3 μM, incubation 1 h) was 189.4 and the “Concentration of remaining 2OG” value ([2]; inhibitor 33.3 μM, incubation 4 h) was 181.4. The “Concentration of remaining 2OG” value ([2]; inhibitor 100 μM, incubation 0 min, 200 μM 2-OG at start) was 200.0, the “Concentration of remaining 2OG” value ([2]; inhibitor 100 μM, incubation 15 min) was 199.4 and the “Concentration of remaining 2OG” value ([2]; inhibitor 100 μM, incubation 30 min) was 197.3. For the same molecule, the “Concentration of remaining 2OG” value ([2]; inhibitor 100 μM, incubation 1 h) was 193.2, the “Concentration of remaining 2OG” value ([2]; inhibitor 100 μM, incubation 4 h) was 186.6 and the “Concentration of remaining 2OG” value ([2]; inhibitor 300 μM, incubation 0 min, 200 μM 2-OG at start) was 200.0. For the same molecule, the “Concentration of remaining 2OG” value ([2]; inhibitor 300 μM, incubation 15 min) was 200.0, the “Concentration of remaining 2OG” value ([2]; inhibitor 300 μM, incubation 30 min) was 199.1 and the “Concentration of remaining 2OG” value ([2]; inhibitor 300 μM, incubation 1 h) was 196.6. For the same molecule, the “Concentration of remaining 2OG” value ([2]; inhibitor 300 μM, incubation 4 h) was 193.3.
